Data published in ChEMBL document CHEMBL1138436, “Biological activity and chemistry of taxoids from the Japanese yew, Taxus cuspidata” (J Nat Prod, 2004).
Values after ≈ are worked out from the molar mass of the structure shown.

What was measured:
[1] = Growth inhibition of human BSY1 cells; assay type: functional
[2] = test system: PC-3; test: Growth inhibition of human PC3 cells; assay type: functional; settings: for CC50: read-out: LC50 (the source's name)
[3] = test system: KM12; test: Growth inhibition of human KM12 cells; assay type: functional
[4] = test system: HCT-116; test: Growth inhibition of human HCT116 cells; assay type: functional
[5] = test system: OVCAR-3; test: Growth inhibition of human OVCAR-3 cells; assay type: functional
[6] = test system: MKN-28; test: Growth inhibition of human MKN28 cells; assay type: functional
[7] = test system: SNB-75; test: Growth inhibition of human SNB75 cells; assay type: functional
[8] = Growth inhibition of human HBC5 cells; assay type: functional; settings: for CC50: read-out: LC50 (the source's name)
[9] = test system: NCI-H522; test: Growth inhibition of human NCI-H522 cells; assay type: functional; settings: for CC50: read-out: LC50 (the source's name)
[10] = test system: MKN-7; test: Growth inhibition of human MKN7 cells; assay type: functional; settings: for CC50: read-out: LC50 (the source's name)
[11] = test system: NCI-H460; test: Growth inhibition of human NCI-H460 cells; assay type: functional
[12] = test system: KB; test: Cytotoxicity against human KB cells; assay type: functional, cell-based
[13] = BSY-1, read-out: LC50 (the source's name)
[14] = BSY-1, read-out: pGI50 (converted)
[15] = BSY-1, read-out: pLC50 (the source's name) (converted)
[16] = BSY-1, read-out: pTGI (converted)
[17] = read-out: LC50 (the source's name)
[18] = read-out: pLC50 (the source's name) (converted)

Question: For `C=C1[C@@H](OC(=O)/C=C/c2ccccc2)C[C@H](OC(C)=O)[C@]2(C)[C@@H]1C[C@]1(C(C)(C)O)C[C@H](OC(C)=O)C(C)=C1[C@@H](OC(=O)c1ccccc1)[C@@H]2OC(C)=O` [TAXUSPINE A], which GI50 ([1]; BSY-1, read-out: GI50) is on record?
Answer: The GI50 was 6.9 µM.

Question: And the CC50 [1, 13]?
Answer: The CC50 was greater than 100 µM.

Question: What about the TGI ([1]; BSY-1, read-out: TGI) of the same compound?
Answer: The TGI was 82 µM.

Question: And the GI50 [1, 14]?
Answer: Its GI50 is 6.92 µM.

Question: And the CC50 [1, 15]?
Answer: The CC50 was 100 µM.

Question: And the TGI [1, 16]?
Answer: Its TGI is 87.1 µM.

Question: What about the GI50 ([2]; read-out: GI50) of the same compound?
Answer: The GI50 was 5.2 µM.

Question: And the CC50 [2]?
Answer: The CC50 was greater than 100 µM.

Question: And the TGI ([2]; read-out: TGI)?
Answer: The TGI was greater than 100 µM.

Question: And the GI50 ([2]; read-out: pGI50 (converted))?
Answer: Its GI50 is 5.25 µM.

Question: What about the TGI ([2]; read-out: pTGI (converted)) of the same compound?
Answer: The TGI was 100 µM.

Question: What about the GI50 ([3]; read-out: GI50) of the same compound?
Answer: The GI50 was 6.4 µM.

Question: What about the CC50 [3, 17] of the same compound?
Answer: The CC50 was greater than 100 µM.

Question: And the TGI ([3]; read-out: TGI)?
Answer: Its TGI is greater than 100 µM.

Question: And the GI50 ([3]; read-out: pGI50 (converted))?
Answer: Its GI50 is 6.46 µM.

Question: And the CC50 [3, 18]?
Answer: Its CC50 is 100 µM.

Question: And the TGI ([3]; read-out: pTGI (converted))?
Answer: The TGI was 100 µM.

Question: What about the TGI [4] of the same compound?
Answer: Its TGI is greater than 100 µM.

Question: And the GI50 ([4]; read-out: GI50)?
Answer: Its GI50 is 5.6 µM.

Question: What about the CC50 [4, 17] of the same compound?
Answer: The CC50 was greater than 100 µM.

Question: What about the GI50 ([4]; read-out: pGI50 (converted)) of the same compound?
Answer: Its GI50 is 5.62 µM.

Question: And the CC50 [4, 18]?
Answer: The CC50 was 100 µM.

Question: What about the GI50 ([5]; read-out: GI50) of the same compound?
Answer: The GI50 was 5 µM.

Question: And the CC50 [5, 17]?
Answer: The CC50 was greater than 100 µM.

Question: And the TGI ([5]; read-out: TGI)?
Answer: Its TGI is greater than 100 µM.

Question: And the GI50 ([5]; read-out: pGI50 (converted))?
Answer: Its GI50 is 5.01 µM.

Question: What about the CC50 [5, 18] of the same compound?
Answer: The CC50 was 100 µM.

Question: What about the TGI ([5]; read-out: pTGI (converted)) of the same compound?
Answer: Its TGI is 100 µM.

Question: What about the GI50 ([6]; read-out: GI50) of the same compound?
Answer: The GI50 was 12 µM.

Question: What about the CC50 [6, 17] of the same compound?
Answer: Its CC50 is greater than 100 µM.

Question: And the TGI ([6]; read-out: TGI)?
Answer: The TGI was greater than 100 µM.

Question: And the GI50 ([6]; read-out: pGI50 (converted))?
Answer: Its GI50 is 11.7 µM.

Question: What about the CC50 [6, 18] of the same compound?
Answer: Its CC50 is 100 µM.

Question: What about the TGI ([6]; read-out: pTGI (converted)) of the same compound?
Answer: Its TGI is 100 µM.

Question: What about the GI50 ([7]; read-out: GI50) of the same compound?
Answer: Its GI50 is 7.3 µM.

Question: What about the CC50 [7, 17] of the same compound?
Answer: Its CC50 is greater than 100 µM.

Question: What about the TGI ([7]; read-out: TGI) of the same compound?
Answer: The TGI was 68 µM.

Question: And the GI50 ([7]; read-out: pGI50 (converted))?
Answer: The GI50 was 7.24 µM.

Question: What about the CC50 [7, 18] of the same compound?
Answer: The CC50 was 100 µM.

Question: What about the TGI ([7]; read-out: pTGI (converted)) of the same compound?
Answer: The TGI was 67.6 µM.

Question: What about the GI50 ([8]; read-out: GI50) of the same compound?
Answer: The GI50 was 100 µM.

Question: And the CC50 [8]?
Answer: Its CC50 is greater than 100 µM.

Question: And the TGI ([8]; read-out: TGI)?
Answer: Its TGI is greater than 100 µM.

Question: What about the GI50 ([8]; read-out: pGI50 (converted)) of the same compound?
Answer: The GI50 was 25.1 µM.

Question: And the TGI ([8]; read-out: pTGI (converted))?
Answer: Its TGI is 100 µM.

Question: What about the GI50 ([9]; read-out: GI50) of the same compound?
Answer: The GI50 was 3.1 µM.

Question: What about the CC50 [9] of the same compound?
Answer: Its CC50 is greater than 100 µM.

Question: What about the TGI ([9]; read-out: TGI) of the same compound?
Answer: Its TGI is 81 µM.

Question: And the GI50 ([9]; read-out: pGI50 (converted))?
Answer: Its GI50 is 3.09 µM.

Question: What about the TGI ([9]; read-out: pTGI (converted)) of the same compound?
Answer: The TGI was 81.3 µM.

Question: And the TGI [10]?
Answer: The TGI was greater than 100 µM.

Question: What about the GI50 ([10]; read-out: GI50) of the same compound?
Answer: The GI50 was 5.1 µM.

Question: And the CC50 [10]?
Answer: Its CC50 is greater than 100 µM.

Question: What about the GI50 ([10]; read-out: pGI50 (converted)) of the same compound?
Answer: Its GI50 is 5.13 µM.

Question: What about the GI50 ([11]; read-out: GI50) of the same compound?
Answer: Its GI50 is 44 µM.

Question: And the CC50 [11, 17]?
Answer: Its CC50 is greater than 100 µM.

Question: What about the TGI ([11]; read-out: TGI) of the same compound?
Answer: The TGI was greater than 100 µM.

Question: What about the GI50 ([11]; read-out: pGI50 (converted)) of the same compound?
Answer: Its GI50 is 43.7 µM.

Question: What about the TGI ([11]; read-out: pTGI (converted)) of the same compound?
Answer: Its TGI is 100 µM.

Question: Which results are given for `CC(=O)O[C@H]1C[C@H]2OC[C@@]2(OC(C)=O)[C@H]2[C@H](OC(=O)c3ccccc3)[C@]3(O)C[C@H](O)C(C)=C([C@@H](O)[C@H](O)[C@]12C)C3(C)C` [TAXUSPINE E]?
Answer: GI50 ([1]; BSY-1, read-out: GI50): 30 µM; CC50 [1, 13]: > 100 µM; TGI ([1]; BSY-1, read-out: TGI): > 100 µM; GI50 [1, 14]: 30.2 µM; CC50 [1, 15]: 100 µM; TGI [1, 16]: 100 µM; GI50 ([2]; read-out: GI50): 20 µM; CC50 [2]: > 100 µM; TGI ([2]; read-out: TGI): > 100 µM; GI50 ([2]; read-out: pGI50 (converted)): 20 µM; TGI ([2]; read-out: pTGI (converted)): 100 µM; GI50 ([3]; read-out: GI50): 42 µM; CC50 [3, 17]: 100 µM; TGI ([3]; read-out: TGI): > 100 µM; GI50 ([3]; read-out: pGI50 (converted)): 41.7 µM; CC50 [3, 18]: 100 µM; TGI ([3]; read-out: pTGI (converted)): 100 µM; TGI [4]: > 100 µM; GI50 ([4]; read-out: GI50): 30 µM; CC50 [4, 17]: > 100 µM; GI50 ([4]; read-out: pGI50 (converted)): 30.2 µM; CC50 [4, 18]: 100 µM; GI50 ([5]; read-out: GI50): 21 µM; CC50 [5, 17]: > 100 µM; TGI ([5]; read-out: TGI): 99 µM; GI50 ([5]; read-out: pGI50 (converted)): 20.4 µM; CC50 [5, 18]: 100 µM; TGI ([5]; read-out: pTGI (converted)): 100 µM; IC50 [12]: 0.08 µg/mL (≈ 0.136 µM); GI50 ([6]; read-out: GI50): 31 µM; CC50 [6, 17]: > 100 µM; TGI ([6]; read-out: TGI): > 100 µM; GI50 ([6]; read-out: pGI50 (converted)): 30.9 µM; CC50 [6, 18]: 100 µM; TGI ([6]; read-out: pTGI (converted)): 100 µM; GI50 ([7]; read-out: GI50): 9 µM; CC50 [7, 17]: 100 µM; TGI ([7]; read-out: TGI): 55 µM; GI50 ([7]; read-out: pGI50 (converted)): 8.91 µM; CC50 [7, 18]: 100 µM; TGI ([7]; read-out: pTGI (converted)): 55 µM; GI50 ([8]; read-out: GI50): 25 µM; CC50 [8]: > 100 µM; TGI ([8]; read-out: TGI): > 100 µM; GI50 ([8]; read-out: pGI50 (converted)): 25.1 µM; TGI ([8]; read-out: pTGI (converted)): 100 µM; GI50 ([9]; read-out: GI50): 15 µM; CC50 [9]: > 100 µM; TGI ([9]; read-out: TGI): 49 µM; GI50 ([9]; read-out: pGI50 (converted)): 15.1 µM; TGI ([9]; read-out: pTGI (converted)): 49 µM; TGI [10]: 93 µM; GI50 ([10]; read-out: GI50): 18 µM; CC50 [10]: > 100 µM; GI50 ([10]; read-out: pGI50 (converted)): 18.2 µM; GI50 ([11]; read-out: GI50): 36 µM; TGI ([11]; read-out: TGI): > 100 µM; GI50 ([11]; read-out: pGI50 (converted)): 35.5 µM; TGI ([11]; read-out: pTGI (converted)): 100 µM
